The results in this text go back to patent US20210253598A1, “ARYL ANNULATED MACROCYCLIC INDOLE DERIVATIVES” (priority 2017, published 2021).

In general, Kd refers to the constant that tells how readily two partners part at equilibrium.

Where “and” joins values, the source holds several entries; their conditions need not be identical. Equal entries are not always repeated. Structures can show the parent of a compound that is named as a salt. Where two headings read alike, the source gives them in different places.

In one experiment the target is BCL-XL (Homo sapiens, UniProt Q07817). The experiment is described as follows: Protein-protein interaction assay BCL-XL/Bad BH3 peptide, TR-FRET (BCL-XL assay, Assay 2). Type of experiment: binding. Particulars: His-BCL-XL / Bad BH3 peptide, median. On the technique in general: TR-FRET usually uses a lanthanide donor and a delayed reading to cut background.
Chain of BCL-XL (Q07817 1-212): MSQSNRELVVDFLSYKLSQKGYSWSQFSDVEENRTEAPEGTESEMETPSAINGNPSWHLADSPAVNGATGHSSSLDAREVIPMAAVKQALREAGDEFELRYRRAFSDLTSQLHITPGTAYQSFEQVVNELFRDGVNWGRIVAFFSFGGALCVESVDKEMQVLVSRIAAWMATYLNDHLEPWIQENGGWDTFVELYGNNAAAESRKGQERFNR
The target of another experiment is T1, MCL1 protein (Homo sapiens, UniProt Q07820).
T1 construct: this assay uses full length endogenous MCL1 protein at mitochondria outer membrane; endogenous in cells; host or cells: RKO colon cancer cell line
T1 sequence (Q07820 whole entry): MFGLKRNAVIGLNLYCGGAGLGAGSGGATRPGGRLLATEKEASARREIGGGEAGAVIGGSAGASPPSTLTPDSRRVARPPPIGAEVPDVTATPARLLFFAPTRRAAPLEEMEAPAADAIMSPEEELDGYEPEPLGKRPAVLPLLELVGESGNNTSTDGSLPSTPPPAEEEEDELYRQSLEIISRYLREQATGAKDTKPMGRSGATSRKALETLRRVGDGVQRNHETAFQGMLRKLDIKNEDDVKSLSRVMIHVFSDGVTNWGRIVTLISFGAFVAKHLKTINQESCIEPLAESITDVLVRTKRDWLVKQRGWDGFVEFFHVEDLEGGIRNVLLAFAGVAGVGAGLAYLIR
Nature of the experiment: PIxEL: protein-protein interaction in permeabilized cells by ELISA (Assay 5). Type of experiment: cell-based. Particulars: permeabilized RKO cells, biotin-BIM BH3 peptide 0.2 μM, serum free. The procedure: PIxEL: Protein-Protein Interaction in Permeabilized Cells by ELISA
Most MCL1 protein molecules are localized at the mitochondria outer membrane and sequester pro-apoptotic proteins through binding of their BCL2 homology domain 3 (BH3 domain). MEB buffer (150 mM mannitol, 10 mM HEPES pH 7.5, 50 mM KCl, 20 μM EDTA, 20 μM EGTA, 5 mM potassium succinate, 0.1% protease-free BSA (SIGMA) with low dose digitonin (0.002%) permeabilizes plasma membrane while leaves live mitochondria, where MCL1 maintains its native localization and conformation. Unlike biophysical assays (e.g. TR-FRET) that use truncated recombinant MCL1 protein, this assay uses full length endogenous MCL1 protein at mitochondria outer membrane. It measures the interaction between MCL1 protein and biotinylated BIM BH3 peptide. Compounds can compete with BIM BH3 peptide to bind to MCL1 protein.
On day 1, RKO colon cancer cell line cells were plated at 0.8 million cells/ml, 100 μl/well in 96-well flat bottom TC plates (Corning). […] Each plate was tapped to make sure liquid covering entire bottom of wells and incubate at 37° C. overnight.
On the second day, MCL1 antibody was washed from ELISA plate. 250 μl Odyssey® Blocking Buffer (PBS) (Li-Cor) was added to each well, incubated at room temperature for at least 1 hour, then washed once with 250 μl 1×PBST. Plates with RKO cells were gently washed once with 100 μl/well PBS, once with 100 μl/well MEB buffer without digitonin, then 100 μl of MEB buffer with 0.002% digitonin was gently added to each well. Compounds were added with HP Tecan compound dispenser in 3-fold dilution series, highest dose 30 μM, 10-dose per compound in quadruplicates. Biotin-BIM peptide (synthesized by 21st Century) was added with HP Tecan compound dispenser at 0.2 μM immediately after the addition of compounds. Plates were rocked for 1 h at room temperature. Then MEB buffer was aspirated and 50 μl of CHAPS buffer (50 mM Tris-Cl, pH 7.4, 150 mM NaCl, 1% CHAPS, 1 mM EDTA, 1 mM EGTA, complete protease inhibitors (Roche), PhosSTOP (Roche)) was added to each well. Plates were rocked for 1 hour at 4° C., then 45 μl cell lysate from each well were transferred to ELISA plates coated with MCL1 antibody. Plates were incubated overnight in the cold room with rocking.
On the third day, ELISA plates were washed once with 250 μl 1×PBST. Streptavidin-poly-HRP (Thermo Fisher Scientific) was diluted to 20 ng/ml in Odyssey blocking buffer plus 0.05% Triton-100, and 100 μl was added to each well of the ELISA plate. Plates were incubated at RT for 1 hour with rocking, then washed with 100 μL 1×PBST for 3 times. Each SuperSignal ELISA Femto Maximum Sensitivity substrate was added to a 50-ml tube and mixed, then 100 μl of mixed substrate was added to each well. Plates were shaken for 1 minute then luminescence was measured by Envision plate reader […]. Signal of each well were normalized by no-compound control and no-cell control. IC50 was calculated using Graphic Pad PRISM software.
(In an ELISA, binding on a coated surface is turned into a signal by an enzyme label.)

For another experiment, the system named is SUDHL5. Nature of the experiment: Anti-proliferative effect in SUDHL5 cells, CellTiter-Glo (Assay 7). It is filed as cell-based. Summed up: (§1)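 Cells plated and incubated overnight at 37° C, then exposed to compound for 72 hours. Viability read as CellTiter-Glo luminescence, with a day 0 plate as time-zero reference. IC50 calculated with day 0 values and DMSO control values as references.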

The next experiment deals with SUDHL10. The experiment is described as follows: Anti-proliferative effect in SUDHL10 cells, CellTiter-Glo (Assay 7). Conditions: median, read-out: Antiproli SUDHL10 [M] (median). It is filed as cell-based. The protocol:
(§2) Assessment of the Anti-Proliferative Effect of Compounds in Different Cell Lines
(§3) The impact of compounds on the proliferation of different cell lines was assessed using the CellTiter-Glo® Luminescent Cell Viability reagent from Promega (G7573).
(§4) In parallel, cells were plated in a reference (day 0) plate for time zero determination. Cells were incubated in a humidified incubator at 37° C. overnight.
(§5) Rim wells were excluded. The cells were incubated for 72 hours in a humidified incubator at 37° C. The day 0 plate was measured by adding 30 μL/well of CTG solution (CellTiter-Glo® Luminescent Cell Viability reagent, Promega G7573) to time zero wells in the reference plate followed by a 10 minutes incubation and luminescence reading at 0.1 ms. using the PHERAstar FS microplate reader (BMG Labtech).
(§6) After 72 hours incubation, the treated plates were measured in the same way as the day 0 plate mentioned above. The Bella DRC Master Sheet was used to calculate IC50s, with CI=day 0 values and C0=DMSO control values.
On the technique in general: In ATP-based viability assays light output follows the ATP content of the culture.

A further experiment concerns A2780. The experiment is described as follows: Anti-proliferative effect in A2780 cells, CellTiter-Glo (Assay 7). Type of experiment: cell-based. Particulars: A2780, 72 hours incubation, CellTiter-Glo; several values per example; read-out: Antiproli A2780. Summed up: as §1
For another experiment, the target named is MCL-1 (Homo sapiens, UniProt Q07820, K194A/K197A/R201A). The experiment is described as follows: Protein-compound interaction assay, surface plasmon resonance (SPR assay, Assay 8). It is filed as binding. Particulars: geometric mean. The text has this: Protein-Compound Interaction Assay (SPR Assay)
Chain of MCL-1 (Q07820 173-321 K194A/K197A/R201A, looked up): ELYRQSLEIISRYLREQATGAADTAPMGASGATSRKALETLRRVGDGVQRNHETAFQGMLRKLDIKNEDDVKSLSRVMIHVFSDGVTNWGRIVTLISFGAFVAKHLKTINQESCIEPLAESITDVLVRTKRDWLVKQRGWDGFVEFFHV
The ability of the compounds described in this invention to bind to MCL-1 may be determined using surface plasmon resonance (SPR). This allows for the quantification of binding in terms of the equilibrium dissociation constant (KD [M]), as well as association and dissociation rate constants (kon [1/M 1/s] and koff [1/s], respectively). The measurements may be performed using Biacore® T200 or Biacore® S200 instruments (GE Healthcare).
Briefly, carboxymethylated dextran biosensor chips (Series S Sensor Chip CM5, GE Healthcare) were activated with 1-ethyl-3-(3-dimethylaminopropyl)-carbodiimide hydrochloride (EDC) and N-hydroxysuccinimide (NHS) according to the supplier's instructions. MBP-MCL-1 was diluted in 1×PBS-P+ (GE Healthcare) and injected on the activated chip surface. Subsequently, a solution of 1 M ethanolamine-HCl (GE Healthcare) was injected to block unreacted groups, resulting in approximately 400-2500 response units (RU) of immobilized protein. A reference surface was generated by treatment with NHS-EDC and ethanolamine-HCl. […] Compounds were injected for 60 s followed by a dissociation time of up to 1000 s.
The double-referenced sensorgrams were fit to a simple reversible Langmuir 1:1 reaction mechanism as implemented in the Biacore® T200 and S200 evaluation software (T200 evaluation software version 2.0 and S200 evaluation software version 1.0, GE Healthcare).

A further experiment has as its system HMC-1-8. The experiment is described as follows: Anti-proliferative effect in HMC-1-8 cells, CellTiter-Glo (Assay 7). It is filed as cell-based. The procedure:
as §2, §3, §4, §5, §6

The mark [1] stands for this setting: median, read-out: PIxEL [M] (median).
Where [2] appears, read: SUDHL5, 72 hours incubation, CellTiter-Glo, median, read-out: Antiproli SUDHL5 [M] (median).
Setting [3] is: SPR, immobilized MBP-MCL-1, 25° C.
Setting [4] is: KD [M], SPR, immobilized MBP-MCL-1, 25° C.
The mark [5] stands for this setting: read-out: Antiproli SUDHL5 [M] (median), SUDHL5, 72 hours incubation, CellTiter-Glo.
The mark [6] stands for this setting: read-out: Antiproli HMC-1-8, HMC-1-8, 72 hours incubation.

As for `CCNCC.Cc1c2c(nn1C)COCc1ncccc1Cn1c(C(=O)O)c(CCCOc3cccc4ccccc34)c3ccc(Cl)c-2c31` (single isomer, unassigned; enantiomer 1) [Example 43, 3-Chloro-4,5-dimethyl-17-[3-(naphthalen-1-yloxy)propyl]-5,7,9,14-tetrahydropyrazolo-[4′,3′:9,10]pyrido[2′,3′:3,4][1,6]oxazacycloundecino[8,7,6-hi]indole-16-carboxylic acid-N-ethylethanamine Salt (Enantiomer 1)], the IC50 on BCL-XL was above 20000 nM; on MCL1 protein (setting [1]) it was 2.97e-06 M; in the experiment with SUDHL5 (setting [2]) it was 1.2e-06 M; in the experiment with SUDHL10 (SUDHL10, 72 hours incubation), 1.5e-06 M; in the experiment on A2780, 23400 nM. The “koff” value at MCL-1 (setting [3]) is 0.0096 s⁻¹. The “kon [1/M 1/s]” value at MCL-1 (setting [3]) is reported as 5.6E6 1/M 1/s. The Kd on MCL-1 (SPR, immobilized MBP-MCL-1, 25° C., read-out: KD) was determined as 1.7e-09 M.
For the compound `Cc1c2c(nn1C)COCc1ccccc1Cn1c(C(=O)O)c(CCCOc3cccc4cc(F)ccc34)c3ccc(Cl)c-2c31` (single isomer, unassigned; enantiomer 1) [Example 49, (−)-3-Chloro-17-{3-[(6-fluoronaphthalen-1-yl)oxy]propyl}-4,5-dimethyl-5,7,9,14-tetrahydroindolo[7,1-fg]pyrazolo[3,4-d][2,8]benzoxazacycloundecine-16-carboxylic acid-N-ethylethanamine Salt (Enantiomer 1)], the IC50 was above 20000 nM against BCL-XL; 7.88e-07 M against MCL1 protein (PIxEL [M] (median)); 1e-06 M with SUDHL5 (Homo sapiens, SU-DHL-5, 72 h, SUDHL5, 72 hours incubation, CellTiter-Glo, median, read-out: Antiproli SUDHL5 [M] (median)); 1.2e-06 M in the experiment with SUDHL10 (Homo sapiens, SU-DHL10, SUDHL10, 72 hours incubation); 7620 nM and 5260 nM in the experiment on A2780. For the same compound, on MCL-1 (setting [4]), the dissociation constant Kd amounted to 3e-09 M. For the same compound, the koff at MCL-1 (read-out: koff [1/s], SPR, immobilized MBP-MCL-1, 25° C.) is 0.0058 s⁻¹. In addition, the kon at MCL-1 (read-out: kon [1/M 1/s], SPR, immobilized MBP-MCL-1, 25° C.) came out at 1.9e+06 M⁻¹ s⁻¹.
As to `CCc1c2c(nn1C)COCc1ccccc1Cn1c(C(=O)O)c(CCCOc3cccc4cc(F)ccc34)c3ccc(Cl)c-2c31` (single isomer, unassigned; enantiomer 1) [Example 55, (−)-3-Chloro-4-ethyl-17-{3-[(6-fluoronaphthalen-1-yl)oxy]propyl}-5-methyl-5,7,9,14-tetrahydro-indolo[7,1-fg]pyrazolo[3,4-d][2,8]benzoxazacycloundecine-16-carboxylic Acid N-ethylethanamine Salt (Enantiomer 1)], the IC50 against BCL-XL is above 20000 nM; against MCL1 protein (PIxEL [M] (median)) it was 3.11e-07 M; with SUDHL5 (setting [5]), 1e-06 M; in the experiment on HMC-1-8 (setting [6]), 2390 nM. This compound also returned a Kd on MCL-1 (setting [4]) of 3.9e-09 M.
For `CCc1nn(C)c2c1-c1c(Cl)ccc3c(CCCOc4cccc5cc(F)ccc45)c(C(=O)O)n(c13)Cc1ccccc1COC2` (single isomer, unassigned; enantiomer 1) [Example 58, (+)-3-Chloro-4-ethyl-17-{3-[(6-fluoronaphthalen-1-yl)oxy]propyl}-6-methyl-6,7,9,14-tetrahydro-indolo[7,1-fg]pyrazolo[3,4-d][2,8]benzoxazacycloundecine-16-carboxylic acid-N-ethylethanamine Salt (Enantiomer 1)], the IC50 at BCL-XL is 17300 nM; on MCL1 protein (setting [1]) it was 8.34e-07 M; with SUDHL5 (setting [2]), 1.2e-06 M; in the experiment with HMC-1-8 (HMC-1-8, 72 hours incubation, read-out: Antiproli HMC-1-8), 3870 nM.
Take `CCc1c2c(nn1C)COCc1ccccc1Cn1c(C(=O)O)c(CCCOc3cccc4cc(F)ccc34)c3ccc(Cl)c-2c31` (single isomer, unassigned; enantiomer 2) [Example 56, (+)-3-Chloro-4-ethyl-17-{3-[(6-fluoronaphthalen-1-yl)oxy]propyl}-5-methyl-5,7,9,14-tetrahydro-indolo[7,1-fg]pyrazolo[3,4-d][2,8]benzoxazacycloundecine-16-carboxylic Acid N-ethylethanamine Salt (Enantiomer 2)]: the values for the IC50 on MCL1 protein (PIxEL [M] (median)), with SUDHL5 (setting [5]) and in the experiment with HMC-1-8 (setting [6]) were 2.35e-06 M, 2.1e-06 M and 10900 nM, respectively.
